According to patent US10351560B2, “Crystalline forms” (IDORSIA PHARMACEUTICALS LTD, priority 2015, dated 2019):

Assays:
[1] = tested on: primary cultured rat hepatocytes; test: In vitro cytotoxicity in primary cultured rat hepatocytes; format: cell-based; conditions: for NoEC (no effect concentration) / LCC (lowest cytotoxic concentration): 24 h treatment, highest test concentration 300 μM; for NoEC (no effect concentration): morphology and LDH leakage; for LCC (lowest cytotoxic concentration): morphology grading ≥2 or ≥2-fold increase in LDH leakage
Description: In Vitro Cytotoxicity in Primary Cultured Rat Hepatocytes
Adult male Wistar rats were narcotized with sodium pentobarbital and hepatocytes were isolated according to a standard procedure, i.e. by in situ perfusion of the liver with a collagenase solution. The viability of the purified hepatocytes, checked by the trypan blue dye exclusion method was greater than 85%. The isolated hepatocytes were resuspended in standard Williams Medium E, without phenol red, supplemented (WME supp.) with transferrin (100 μg/ml), triiodothyronine (10 μg/ml), gentamicin (50 μg/ml), hydrocortison hemisuccinate (13.36 μg/ml), glucagon (5 μg/ml), HEPES (10 mM), inosin (10 μg/ml), insulin (10 μg/ml), streptomycin (100 μg/ml) and penicillin (100 U/ml) and 10% fetal bovine serum (FBS). The cells were plated in collagen-coated 24-well plates at an initial density of 2×10^5 cells/well. After 4 h for attachment to the culture-plates, the medium was aspirated and replaced by fresh WME supp. without FBS containing the test compounds and incubated for 24 h at 37° C. in a […] and 5% CO2 atmosphere. For each experiment, i.e., with each batch of hepatocytes, treatments with the test compounds were done in quadriplicate. Quadriplicate controls (treatment with the vehicle only) were also present on each culture plate.
Stock solutions of the test compounds were prepared in DMSO a few hours before treatment start. Appropriate dilutions of these stock solutions were added to the culture media just prior to the treatment in order to give final concentrations of 0, 3, 10, 30, 100 and 300 μM. The final concentration of the vehicle DMSO was 1% (v/v).
The morphology of the hepatocyte monolayers was monitored by light microscopy after 24 hours of exposure to the test compounds. Treatment related effects are described according to the following grading: • 0 No morphological alterations observed upon treatment when compared to the control cultures • 1-3 Treatment resulting in any morphological changes, e.g. intracellular granulation, vacuolization or cell death. Depending on the severity, these changes were regarded as slight (1), moderate (2) or strong (3). • K Treatment resulting in 100% dead cells and/or the complete detachment of the monolayer yielding a clear cell-free dish.
After 24 h treatment of the hepatocyte cultures, aliquots of culture medium were carefully collected and used for the analysis of lactate dehydrogenase (LDH) activity by spectrophotometry using the LDH cytotoxicity detection kit from Clontech (cat No. 630117, Mountain View, Calif., USA). For each experiment, additional cultures were used for the determination of total intracellular LDH activity at treatment start. For this purpose, 4 wells of cell culture per experiment were washed with cold saline before treatment start, sonicated in fresh medium and the homogenate was analyzed for total LDH activity. Enzyme activities in the culture media were assessed and expressed as percentage of the total activity present in the cultured hepatocytes at the beginning of the treatments.
The lowest cytotoxic concentration (LCC) and the no effect concentration (NoEC) are given for each compound, based on cell morphology and LDH leakage after 24 h treatment. LCC is defined as the lowest concentration of the test compound leading to a clear effect on the cultured rat hepatocytes (morphology grading ≥2 or ≥2-fold increase in LDH leakage). […]

[2] = tested on: eosinophils (PGD2-induced shape change); test: Eosinophil shape change assay with human plasma; format: cell-based; conditions: 50% human plasma, PGD2 100 nM activation, read-out: Antagonistic activity IC50
Protocol: Eosinophil Shape Change Assay with Human Plasma After obtaining informed consent, blood samples were drawn by venipuncture according to the protocol approved by the ethics committee of Basel, Switzerland. Polymorphonuclear leukocytes (containing eosinophils, basophils and neutrophils) were isolated using the Polymorphprep™ method (Axis-Shield). In brief, anticoagulated whole blood was layered onto a Polymorphprep gradient (density 1.113 g/ml) and centrifuged at 500 g for 30 min. The polymorphonuclear cell fraction was harvested and depleted for erythrocytes by hypotonic saline lysis. […]
Immediately after fixation with paraformaldehyde, the samples were analyzed by FACSCanto flow cytometer (BD Biosciences) and target cells were identified by their forward-scatter (FSC) and side-scatter (SSC) characteristics. […] Shape change responses, indicative of eosinophil activation, were quantified as the percent of cells with an increased forward-scatter.

[3] = Gravimetric vapour sorption (GVS) analysis; format: physicochemical; conditions: 25° C., mass change between 20% and 80% RH in first adsorption scan; mass change larger then 0.2% and smaller then 2%
Protocol: Gravimetric Vapour Sorption (GVS) Analysis
Measurements were performed on a multi sample instrument SPS-100n (Projekt Messtechnik, Ulm, Germany) operated in stepping mode at 25° C. The sample was allowed to equilibrate at 40% RH before starting a pre-defined humidity program (40-0-95-0-95-40% RH, steps of 5% ΔRH and with a maximal equilibration time of 24 hours per step were applied. About 20 to 30 mg of each sample was used. The hygroscopic classification is done according to the European Pharmacopeia Technical Guide (1999, page 86), e.g., slightly hygroscopic: increase in mass is less than 2% and equal to or greater than 0.2% mass/mass; hygroscopic: increase in mass is less than 15% and equal to or greater than 2% mass/mass. The mass change between 20% relative humidity and 80% relative humidity in the first adsorption scan is considered.

SMILES	NoEC (no effect concentration) [1] [µM]	LCC (lowest cytotoxic concentration) [1] [µM]	properties in in-vitro cytotoxicity assay (in words) ([1]; summary statement)	IC50 [2] [nM]	Hygroscopicity [3]
CN(c1ncc(Cl)cn1)[C@H]1CCc2c(c3nc(F)ccc3n2CC(=O)O)C1 [COMPOUND, (S)-2-(8-((5-chloropyrimidin-2-yl)(methyl)amino)-2-fluoro-6,7,8,9-tetrahydro-5H-pyrido[3,2-b]indol-5-yl)acetic acid]	>300	>300	significantly improved properties	3.1	
CN(c1ncc(Cl)cn1)[C@H]1CCc2c(c3cc(F)ccc3n2CC(=O)O)C1 [example 9 from WO 2011/117798, reference compound]	30	300			
CN(c1ncc(Cl)cn1)[C@H]1CCc2c(c3nc(F)ccc3n2CC(=O)O)C1 [COMPOUND in crystalline form 1, (S)-2-(8-((5-chloropyrimidin-2-yl)(methyl)amino)-2-fluoro-6,7,8,9-tetrahydro-5H-pyrido[3,2-b]indol-5-yl)acetic acid]					Slightly hygroscopic (mass change larger
